Source: US20100204249A1, “SECRETORY PHOSPHOLIPASE A2 (SPLA2) INHIBITOR AND NIACIN DRUG COMPOSITIONS AND METHODS FOR TREATING CARDIOVASCULAR DISEASE AND DYSLIPIDEMIA” (priority 2009, published 2010)

Columns and labels:
[1] = tested on: sPLA2; conditions: cited from earlier work
[2] = tested on: human subjects with stable CAD; conditions: oral, once or twice a day, total daily 100-1000 mg, all dosages tested; 361 subjects; cited from earlier work
[3] = tested on: human subjects with stable CAD; assay: Change in HDL levels at eight weeks, A-002 and/or niacin drugs, subjects with stable CAD; conditions: for Baseline Mean HDL: before trial period; for Baseline Mean HDL / Week 8 Mean HDL: stable CAD; for Difference versus placebo (HDL % change) / % change versus baseline (HDL) / Week 8 Mean HDL: week 8; for % change versus baseline (HDL): ANCOVA subject-specific percent change from baseline; for Change from baseline (mean HDL): week 8 versus baseline
Description: (§1) 46 subjects from the above once-a-day and twice-a-day A-002 studies were identified as receiving niacin drugs before and during the trial period. 45 of these 46 subjects were also receiving one or more statins before and during the trial period. The niacin drugs included niacin, nicotinic acid, acipimox, ERN (Niaspan®), Niaspan® in combination with lovastatin (Advicor®), and/or Niaspan® in combination with simvastatin (Simcor®). Of the 46 niacin subjects, twelve were concomitantly administered placebo rather than A-002 (i.e., niacin drug only), four were administered 100 mg of A-002 daily, five were administered 200 mg of A-002 daily, five were administered 250 mg of A-002 daily, thirteen were administered 500 mg of A-002 daily, and seven were administered 1000 mg of A-002 daily.
(§2) The change from baseline HDL and TG levels at eight weeks was determined for each of the subjects receiving niacin drugs, and the percentage increase or decrease in these levels was determined using an analysis of covariance (ANCOVA) model that calculated subject-specific percent change from baseline.

[4] = cited from earlier work
[5] = tested on: human subjects with stable CAD; assay: Change in TG levels at eight weeks, A-002 and/or niacin drugs, subjects with stable CAD; conditions: for Baseline Mean TG: before trial period; for Baseline Mean TG / Week 8 Mean TG: stable CAD; for Difference versus placebo (TG % change) / % change versus baseline (TG) / Week 8 Mean TG: week 8; for % change versus baseline (TG): ANCOVA subject-specific percent change from baseline; for Change from baseline (mean TG): week 8 versus baseline
Description: as §1, §2

[6] = eight weeks, magnitude of decrease

CCc1c(C(=O)C(N)=O)c2c(OCC(=O)O)cccc2n1Cc1ccccc1 [A-001]
type of sPLA2 inhibition [1]: competitive inhibitor

CCc1c(C(=O)C(N)=O)c2c(OCC(=O)OC)cccc2n1Cc1ccccc1 [A-002, [[3-(2-Amino-1,2-dioxoethyl)-2-ethyl-1-(phenylmethyl)-1H-indol-4-yl]oxy]acetic acid methyl ester]
serum LDL, LDL particle, small LDL particle, oxidized LDL, total cholesterol, ApoB, TG, sPLA2, CRP, and IL-6 levels [2]: decrease
Baseline Mean HDL [3]: 47.80 mg/dL
decrease in HDL versus baseline [3, 6]: 2.0%
Difference versus placebo (HDL % change) [3]: +0.3%
% change versus baseline (HDL) [3]: −2.0%
Week 8 Mean HDL [3]: 46.28 mg/dL
Change from baseline (mean HDL) [3]: -1.52 mg/dL
terminal half-life (t1/2) ([4]; in vivo): approximately ten
absorption and hydrolysis to the active A-001 molecule ([4]; prodrug): rapidly absorbed and hydrolyzed
Baseline Mean TG [5]: 165.83 mg/dL
Difference versus placebo (TG % change) [5]: −2.6%
% change versus baseline (TG) [5]: −3.7%
Week 8 Mean TG [5]: 159.04 mg/dL
Change from baseline (mean TG) [5]: -6.79 mg/dL

O=C(O)c1cccnc1 [Niacin, pyridine-3-carboxylic acid]
Baseline Mean HDL [3]: 50.67 mg/dL
decrease in HDL versus baseline [3, 6]: 6.2%
decrease in HDL versus placebo [3, 6]: 3.9%
Difference versus placebo (HDL % change) [3]: −3.9%
% change versus baseline (HDL) [3]: −6.2%
Week 8 Mean HDL [3]: 46.75 mg/dL
Change from baseline (mean HDL) [3]: -3.92 mg/dL
Baseline Mean TG [5]: 129.25 mg/dL
increase in TG versus placebo ([5]; eight weeks, magnitude of increase): 3.4%
Difference versus placebo (TG % change) [5]: +3.4%
% change versus baseline (TG) [5]: +9.7%
Week 8 Mean TG [5]: 133.42 mg/dL
Change from baseline (mean TG) [5]: +4.17 mg/dl
